Reference: patent US11098032B2, “Pyran dervatives as CYP11A1 (cytochrome P450 monooxygenase 11A1) inhibitors” (ORION CORPORATION, priority 2016, dated 2021)

Target: T1, CYP11A1 (Homo sapiens, UniProt P05108)
T1 construct: human H295R adrenocortical carcinoma cell line was used as source of enzyme; endogenous in cells; host or cells: H295R human adrenocortical carcinoma cells
T1 sequence (P05108 40-521): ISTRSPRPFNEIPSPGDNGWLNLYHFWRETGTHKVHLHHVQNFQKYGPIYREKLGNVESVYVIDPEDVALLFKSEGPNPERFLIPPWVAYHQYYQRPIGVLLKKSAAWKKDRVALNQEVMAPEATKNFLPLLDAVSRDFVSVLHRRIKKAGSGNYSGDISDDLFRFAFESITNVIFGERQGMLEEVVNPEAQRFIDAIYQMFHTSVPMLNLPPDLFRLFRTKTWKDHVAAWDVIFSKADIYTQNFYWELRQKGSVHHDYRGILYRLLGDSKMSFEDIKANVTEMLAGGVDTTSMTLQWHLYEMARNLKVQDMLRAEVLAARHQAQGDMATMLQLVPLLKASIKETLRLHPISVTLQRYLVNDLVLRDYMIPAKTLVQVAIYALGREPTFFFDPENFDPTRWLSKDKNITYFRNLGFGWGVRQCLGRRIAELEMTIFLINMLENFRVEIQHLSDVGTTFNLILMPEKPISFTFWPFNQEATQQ
Test: CYP11A1 inhibition: modified isocaproic acid release assay (IARA) in H295R cells
Assay type: cell-based
Conditions: human H295R adrenocortical carcinoma cells treated three days, 3 nM [24,25-3H]-labelled cholesterol, 1% DMSO, 10 concentrations in duplicates; read-out: IC50 of the test compounds on CYP11A1 inhibition
Method in brief: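 Cholesterol side-chain cleavage followed as tritiated isocaproic acid in charcoal-extracted medium, counted by scintillation. Substrate was 3 nM [24,25-3H]-cholesterol on human H295R cells exposed for three days to ten compound concentrations (duplicates, 1% DMSO); IC50 derived.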

SMILES	IC50 [nM]
O=c1cc(CN2Cc3ccccc3C2)occ1OCC1CCN(S(=O)(=O)N2CCCC2)CC1 [Compound 267, 2-(Isoindolin-2-ylmethyl)-5-((1-(pyrrolidin-1-ylsulfonyl)piperidin-4-yl)methoxy)-4H-pyran-4-one]	150 to 300
C=CC(=O)N1CCC(COc2coc(CN3Cc4ccccc4C3)cc2=O)CC1 [Compound 258, 5-((1-Acryloylpiperidin-4-yl)methoxy)-2-(isoindolin-2-ylmethyl)-4H-pyran-4-one]	150 to 300
CC(C)CC(=O)C(=O)N1CCC(COc2coc(CN3Cc4ccccc4C3)cc2=O)CC1 [Compound 249, 1-(4-(((6-(Isoindolin-2-ylmethyl)-4-oxo-4H-pyran-3-yl)oxy)methyl)piperidin-1-yl)-4-methylpentane-1,2-dione]	< 150
CS(=O)(=O)N1CCC(COc2coc(Cn3cc4ccc(C(F)(F)F)cc4c3)cc2=O)CC1 [Compound 287, 5-((1-(Methylsulfonyl)piperidin-4-yl)methoxy)-2-((5-(trifluoromethyl)-2H-isoindol-2-yl)methyl)-4H-pyran-4-one]	301 to 2000
CC1c2ccccc2CCN1Cc1cc(=O)c(OCc2ccc(C(C)(C)O)cc2)co1 (stereo not drawn) [Compound 59, 5-((4-(2-Hydroxypropan-2-yl)benzyl)oxy)-2-((1-methyl-3,4-dihydroisoquinolin-2(1H)-yl)methyl)-4H-pyran-4-one]	301 to 2000
CCS(=O)(=O)N1CCC(COc2coc(CN3Cc4ccc(F)cc4C3)cc2=O)CC1 [Compound 189, 5-((1-(Ethylsulfonyl)piperidin-4-yl)methoxy)-2-((5-fluoroisoindolin-2-yl)methyl)-4H-pyran-4-one]	< 150
